Laboratory results as given in patent US9394544B2, “Ameliorating oxidative stress in neurodegenerative disease via Nox1 targeting” (University of Central Florida Research Foundation, Inc., priority 2013, dated 2016).

Test system: SN dopaminergic neurons
Test: Stereological count of TH-positive dopaminergic neurons in the SN, PQ rat model
Type: in vivo
Conditions: vector+PQ group, or Nox1 shRNA+PQ group
Description: The experiments were performed on rats, in accordance with the National Institutes for Health Guide for the Care and Use of Laboratory Animals. All procedures were approved by the local Animal Care and Use Committee. Male Wistar rats (8-10 weeks; Charles River) were maintained in a temperature/humidity-controlled environment under a 12 h light/dark cycle with ad libitum access to food and water. As depicted in FIG. 13A, each animal received four intraperitoneal injections, separated by 1 d, of either vehicle (saline) or PQ (10 mg/kg body weight; b.w.), according to a previously published dose (Manning-Bog et al., 2002; Harraz et al., 2008; Cristovao et al., 2009). All animals were weighed at day 1 and 12. In the studies using the paradigm depicted in FIG. 13A, 4 weeks before starting PQ intraperitoneal injection, animals were stereotaxically injected with various viral constructs at the right SN using the following coordinates: mediolateral, +2.0; anteroposterior, −5.3; dorsoventral, −6.8. […]
Following perfusion with saline and 4% PFA in PBS, brains were removed, and forebrain and midbrain blocks were immersion fixed in 4% PFA and cryoprotected in sucrose. […] The numbers of TH-immunoreactive cells in the SN were counted using an optical fractionator. […]

C[n+]1ccc(-c2cc[n+](C)cc2)cc1 [PQ, paraquat]
dopaminergic neuronal loss (stereological count of TH-positive neurons): 37%
